In data set [1] the test system is transgenic A30P α-synuclein C. elegans. In words: Coiler score and locomotion of C. elegans expressing A30P α-synuclein in dopaminergic neurons. Format: in vivo, Caenorhabditis elegans. Here is the method:
Using high-resolution, multi-worm tracking with custom image processing, methods were developed for semi-automated and blinded scoring of circularity for a population of simultaneously recorded animals (n=10 per recording). A coiler score was determined for the population tested by first calculating the circularity value for each animal in each frame of video and then calculating the proportion of circularity values >0.6. […] The coiler phenotype is an abnormal motor behaviour previously reported for several unc C. elegans strains with mutations affecting neuronal function.
Animals were synchronized by isolating eggs using alkaline hypochlorite treatment and hatching overnight. Larvae were plated onto NGM agar plates with OP50 and grown for 4 days before recording locomotion. For individual C. elegans recordings, a single adult animal was randomly picked, washed for 1 to 2 minutes in M9 buffer, and then transferred to a fresh NGM plate without food for imaging. Video images were acquired (2 frames per second) for up to 6 minutes using a sCMOS camera (pco.edge, PCO) mounted on a stereomicroscope (Olympus MVX10 MacroView) controlled using the μManager software.^55 A total of 40 individual animals were imaged for each strain. For C. elegans population recordings, ten adult animals were randomly removed using an eyelash pick, washed for 1 minute in M9 buffer, and then transferred to a fresh NGM plate without food, with a ring of copper sulfate solution (150 mM) around the area of recording (a chemorepellent to keep the animals in the recording frame). Exploratory locomotion was recorded using a CCD camera (GX1920, Allied Vision) which was attached to a dissecting stereomicroscope (Leica M165C, 1.0× PlanApo lens). A Labview program captured video (2 frames per second) at 1936×1456 resolution. Using ImageJ, the displacement, perimeter, and area of each animal was calculated, from which a circularity value was computed using the following formula: circularity=4π(A/P^2), where A is the area of the animal's body and P is the perimeter of the animal's body (both expressed in arbitrary pixel units). […] Using MATLAB (Mathworks), various behavioural metrics including the coiler score were calculated, which is the percentage of frames with a circularity value >0.6. Speed was automatically computed from the ImageJ based WrmTrk plugin as the distance travelled by each animal (in pixels) over the amount of time that it was tracked (in seconds).56 Average speed was determined by calculating the weighted average of each tracked animal's speed within a single population of animals. On the day of the recording for dopamine or raclopride treatment, adult animals were washed for 1 minute in M9 buffer, treated in a solution containing either drug for 1 minute, and then placed onto fresh NGM plates without food, with a copper sulfate solution ring around the area of recording. […] Drug plates were prepared by adding each drug to LB medium with OP50 before spreading onto fresh NGM plates. The solvent used to dissolve each drug was used as vehicle control for the drug treatment experiments (M9 buffer for dopamine, distilled water for raclopride, DMSO for all other drugs).
After 72 hours of drug treatment, animals were randomly picked, washed, and recorded. A total of ten worms were recorded per population, and twelve populations were recorded for each of the four treatment groups. Locomotion was recorded for each population over a total of 1800 frames over three minutes. The animal's movement speed, area, and perimeter were automatically analyzed as previously described. Coiler score was calculated automatically using a ratio of the animal's area to perimeter, where a higher coiler score would represent a greater degree of α-synuclein-induced dopaminergic neuron dysfunction in vivo.

In the next data set the test system is α-synuclein protein. In words: Immunoblot for α-synuclein protein in lysates of treated C. elegans. Format: in vivo, Caenorhabditis elegans. The settings on record: 50 μM. An excerpt: The chaperone system is composed of chaperone proteins, such as HSP70 (heat shock protein 70), and co-chaperones. Together, these proteins are integral to maintaining cellular protein quality control by folding newly translated polypeptides into their native conformation, refolding misfolded proteins to prevent their aggregation, and targeting proteins to degradation pathways, such as the autophagy-lysosomal system or ubiquitin-proteasome system, when refolding is unsuccessful. From the above in vitro findings, it was predicted that perturbations to the chaperone system in vivo would affect coiling of the transgenic α-synuclein C. elegans. To test this prediction, we treated the animals were treated with the geldanamycin analogue, 17-(allylamino)-17-demethoxygeldanamycin (17-AAG). […]
Synchronized animals (4 or 5 days old) were lysed in 0.5X Tris-HCl buffer with 0.5% Triton X-100 at 100° C. for 5 minutes and then passed through a 23-gauge needle 10 times. […] Protein concentration was determined with a Bio-Rad Lowry protein assay (Bio-RAD, 5000116) according to the manufacturer's instructions. […] Beads were washed and samples were analysed by immunoblotting and mass spectrometry (see below). […] Signals were detected with ECL (ThermoFisher, 32132) and developed on HyBlot CL autoradiography film (DV-E3018).

The target in data set [2] is T1, α-synuclein oligomers (Homo sapiens, UniProt P37840). In words: Venus YFP protein-fragment complementation assay in rat primary cortical neurons. In kind it is cell-based. The settings on record: 72 hours; losartan 100 μM, rapamycin 50 nM, rifabutin 20 μM.
Procedure: Specifically, adeno-associated viral vectors (AAV) were used to co-express human α-synuclein tagged with the N- or C-terminal half of Venus yellow fluorescent protein (YFP) in rat cortical neurons.
Pregnant Sprague Dawley rats (E17) were purchased from Charles River. Embryos were surgically removed, and neurons were harvested in a sterile environment. Neurons were plated on poly-D-lysine coated glass coverslips at a density of 5×10^5 cells per well in Neurobasal-A medium, (Gibco, 10888022) supplemented with B27 (2%) (Gibco, 17504044), antibiotic-antimycotic (1%) (Gibco, 15240062), and Glutamax (1%) (Gibco, 35050061). Fifty percent media changes were performed every 3 days. […] Two days post isolation, neurons were co-transduced with AAV-V1 S and AAV-SV2 or transduced with AAV-Venus alone at a MOI of 3,000. […] Concentrations were selected to avoid neuron toxicity according to previous reports.^57-61 Drug-containing media was removed, and cells were washed 1 time with ice-cold PBS before being fixed with 4% PFA (Sigma) at room temperature for 10 minutes. Levels of α-synuclein oligomers were measured by YFP fluorescence. […] YFP fluorescence intensity was analysed automatically using Imaris imaging software (Oxford Instruments). […]
The target in data set [3] is T1, α-synuclein oligomers. As to the kind of experiment: Immunoblot of crosslinked split YFP-tagged α-synuclein oligomers in rat primary cortical neuron lysates. Format: cell-based. The arrangement: full-length human α-synuclein fused to the N-terminal fragment of Venus YFP (V1 S); full-length human α-synuclein fused to the C-terminal fragment of Venus YFP (SV2); host or cells: rat (Sprague Dawley, E17) primary cortical neurons, AAV co-transduction. The following applies: losartan 100 μM, rapamycin 50 nM, rifabutin 20 μM. Here is the method: FIGS. 7A-7E. […] (a) Five positive hits were tested for their ability to reduce α-synuclein oligomer levels in rat primary cortical neurons measured with YFP-based protein-fragment complementation. […] Fluorescence intensity was analyzed using Imaris image analysis software by measuring the mean fluorescence intensity of α-synuclein positive neurons throughout a 3D field of view generated by z-stack image acquisition using the “surfaces” module. The value generated for each neuron was normalized to the mean fluorescence intensity of neurons treated with vehicle alone (N=3-4 replicates of n=10 fields of view for each treatment; each data point represents an individual replicate) (nested one-way ANOVA with Dunnett's post-hoc test, *p<0.05, *** p<0.001). […] Bottom: Representative fluorescent microscopy images of neurons treated with vehicle, losartan, rapamycin, or rifabutin and expressing YFP alone. Scale bars are […]. (e) Representative immunoblot to detect oligomers of split YFP-tagged α-synuclein (crosslinked) in rat primary cortical neuron lysates (actin used as a loading control).
Finally, it was examined whether these 5 compounds that had effects in our invertebrate C. elegans model reduce α-synuclein oligomers and α-synuclein-mediated dopaminergic neurodegeneration in mammalian systems.

Another data set relates to H4 neuroglioma cells. As for the experimental part: (§1) For controls in this assay, vehicle (i.e., DMSO), rapamycin, and bafilomycin A were used. Rapamycin, or sirolimus, is a small molecule that activates autophagy by inhibiting mTOR (mammalian target of rapamycin). […] To test this possibility, cells expressing α-synuclein were treated with each of the compounds and a cell permeable, resazurin-based assay was used to test for cell viability.
(§2) H4 neuroglioma cells (ATCC, HTB-148) were maintained in Dulbecco's Modified Eagle Medium plus high glucose, L-glutamine, and sodium pyruvate (ThermoFisher, 11995-065) with 10% heat-inactivated fetal bovine serum (ThermoFisher, 16140071) and 1% antibiotic-antimycotic cocktail (ThermoFisher, 15240062) at 37° C. and 5% CO2. DNA expression constructs encoding for full-length human α-synuclein fused to the N-terminal fragment of Gaussia princeps luciferase (syn-luc1), full-length human α-synuclein fused to the C-terminal fragment of Gaussia princeps luciferase (syn-luc2), and full-length Gaussia princeps luciferase were kindly provided by Dr. Pamela McLean, Mayo Clinic Jacksonville.^33 Cells were transiently co-transfected with syn-luc1 and syn-luc2 or transfected with luciferase alone using Superfect transfection reagent (Qiagen, 301305) according to the manufacturer's instructions. Twenty-four hours after transfection, cells were plated on a 96-well microplate at 60,000 cells per well. Twenty-four hours after plating, cells were treated with drugs or vehicle control. Following 24 hours of treatment, cells were washed 1 time with PBS and bioluminescence was measured using an automated CLARIOstar plate reader (Mandel, 430-0505). Cell permeable, native coelenterazine was used as the Gaussia luciferase substrate. Lyophilized coelenterazine (Nanolight, 303-500) was reconstituted in NanoFuel Solvent (Nanolight, 399-1), then diluted in PBS to 16.6 μg/mL, and dispensed per well to a final concentration of 20 μM). The bioluminescent signal generated by the luciferase enzyme was assessed at 470 nm over 5 seconds. Raw luminescence units were normalized to the DMSO vehicle control of each 96-well microplate. To assess cell viability, H4 neuroglioma cells were prepared and treated as described above and, 1 hour prior to viability analysis, cells were treated with PrestoBlue viability reagent (ThermoFisher, A13261) according to the manufacturer's instructions. Fluorescence was automatically measured using a CLARIOstar plate reader (Mandel, 430-0505) and then normalized to the fluorescence measure of the DMSO vehicle control.

The subject of data set [4] is full-length Gaussia princeps luciferase. As to the kind of experiment: Activity of full-length Gaussia luciferase alone in H4 cells. The following applies: Example 5, FIG. 5c. Format: cell-based. Here is the method: as §1, §2
Data set [5] has as its target T1, α-synuclein oligomers. As to the kind of experiment: Gaussia luciferase protein-fragment complementation cell assay of α-synuclein oligomers in H4 neuroglioma cells. In kind it is cell-based. The arrangement: full-length human α-synuclein fused to the N-terminal fragment of Gaussia princeps luciferase (syn-luc1); full-length human α-synuclein fused to the C-terminal fragment of Gaussia princeps luciferase (syn-luc2); expressed in transfected cells; host or cells: H4 neuroglioma cells (ATCC, HTB-148), transient co-transfection. The settings on record: 1 μM or 10 μM, 24 hours of treatment. Here is the method:
as §1, §2
We used a bioluminescent protein-fragment complementation assay in which human H4 neuroglioma cells co-express human α-synuclein tagged with the N- or C-terminal half of Gaussia princeps luciferase (FIG. 12). Reconstitution of a complete and active luciferase molecule from the fragments occurs upon α-synuclein oligomerization, and so luminescence provides an indirect measure of α-synuclein oligomer levels. H4 neuroglioma cells were co-transfected with α-syn luciferase fragments, and constructs were plated into a 96-well plate and treated with either 1 μM or 10 μM of each of the 19 drug compounds.

For `C=CCNC1=C2C[C@@H](C)C[C@H](OC)[C@H](O)[C@@H](C)/C=C(\C)[C@H](OC(N)=O)[C@@H](OC)/C=C\C=C(/C)C(=O)NC(=CC1=O)C2=O` [17-AAG, 17-(allylamino)-17-demethoxygeldanamycin], in data set [1] (50 μM), the “reduced coiling compared with vehicle control” value is listed as 51%. Further, the α-synuclein protein levels result with α-synuclein protein is recorded as “lower”.

Consider `CCCCc1nc(Cl)c(CO)n1Cc1ccc(-c2ccccc2-c2nnn[nH]2)cc1` [Losartan, losartan], for which the “reduction in coiling compared with vehicle alone (decrease)” value in data set [1] (100 μM of drug, 3 days on drug plates) was 45%. For the same compound, the “decrease in fluorescence compared with vehicle alone” value at α-synuclein oligomers [2] was found to be 33%. In addition, the “α-synuclein oligomers as detected by immunoblotting” value on α-synuclein oligomers [3] is “reduction”. Also, the changes in viability entry in the data set on H4 neuroglioma cells is given as “No statistically significant changes”. The “changes in the activity of full-length Gaussia luciferase alone” value in data set [4] was “No statistically significant changes”. On α-synuclein oligomers [5], the “decrease in luciferase activity compared with vehicle alone” value worked out at 16%.
